Values quoted from earlier work, collected in PubChem BioAssay AID1259409 (Chemical Carcinogenesis Research Information System (CCRIS), 2018).

Test system: rodent chemically induced tumor inhibition, incidence and multiplicity
Assay: CCRIS tumor inhibitor studies

Compound | tumour outcome (control, treated, inhibition, significance) (Carcinogen: 4-NITROQUINOLINE-1-OXIDE, 56-57-5, Dose [Inhibitor]: 0, 500 PPM IN DIET FOR 7 WK BEGINNING 1 WK PRIOR TO START OF CARCINOGEN TREATMENT (STUDY DURATION: 32 WK), Route [Inhibitor]: ORAL, Species: RAT, Strain/Sex: F344/MALE, Target Tissue: Type of Lesion: TONGUE: PAPILLOMA, Dose [Carcinogen]: 20 PPM IN DRINKING WATER FOR 5 WK, Promoter: NONE USED) | tumour outcome (control, treated, inhibition, significance) (Carcinogen: 7,12-DIMETHYLBENZ[A]ANTHRACENE, 57-97-6, Dose [Inhibitor]: 0.5% IN POWDERED DIET BEGINNING 1 WK POST CARCINOGEN DOSE FOR 51 WK (STUDY DURATION: 52 WK), Route [Inhibitor]: ORAL, Species: RAT, Strain/Sex: SPRAGUE-DAWLEY/FEMALE, Target Tissue: Type of Lesion: EAR DUCT: BENIGN TUMOR, Dose [Carcinogen]: 2.5 MG/100 G BW IN 0.5 ML SESAME OIL ONCE, Promoter: NONE USED) | tumour outcome (control, treated, inhibition, significance) (Carcinogen: 7,12-DIMETHYLBENZ[A]ANTHRACENE, 57-97-6, Dose [Inhibitor]: 0.5% IN POWDERED DIET BEGINNING 1 WK POST CARCINOGEN DOSE FOR 51 WK (STUDY DURATION: 52 WK), Route [Inhibitor]: ORAL, Species: RAT, Strain/Sex: SPRAGUE-DAWLEY/FEMALE, Target Tissue: Type of Lesion: MAMMARY GLAND: CARCINOMA, Dose [Carcinogen]: 2.5 MG/100 G BW IN 0.5 ML SESAME OIL ONCE, Promoter: NONE USED) | tumour outcome (control, treated, inhibition, significance) (Carcinogen: 7,12-DIMETHYLBENZ[A]ANTHRACENE, 57-97-6, Dose [Inhibitor]: 0.5% IN POWDERED DIET BEGINNING 1 WK POST CARCINOGEN DOSE FOR 51 WK (STUDY DURATION: 52 WK), Route [Inhibitor]: ORAL, Species: RAT, Strain/Sex: SPRAGUE-DAWLEY/FEMALE, Target Tissue: Type of Lesion: MAMMARY GLAND: FIBROADENOMA, Dose [Carcinogen]: 2.5 MG/100 G BW IN 0.5 ML SESAME OIL ONCE, Promoter: NONE USED) | tumour outcome (control, treated, inhibition, significance) (Carcinogen: 7,12-DIMETHYLBENZ[A]ANTHRACENE, 57-97-6, Dose [Inhibitor]: 10 UMOL IN 200 µL ACETONE/DMSO (90:10) 2/WK FOR 19 WK BEGINNING 1 WK POST CARCINOGEN DOSE (STUDY DURATION: 20 WK), Route [Inhibitor]: DERMAL, Species: MOUSE, Strain/Sex: CD-1/FEMALE, Target Tissue: Type of Lesion: SKIN: PAPILLOMA, Dose [Carcinogen]: 200 NMOL IN 200 µL ACETONE ONCE, Promoter: 12-O-TETRADECANOYLPHORBOL-13-ACETATE, 16561-29-8) | tumour outcome (control, treated, inhibition, significance) (Carcinogen: 7,12-DIMETHYLBENZ[A]ANTHRACENE, 57-97-6, Dose [Inhibitor]: 20 UMOL IN 200 µL ACETONE/DMSO (90:10) 2/WK FOR 19 WK BEGINNING 1 WK POST CARCINOGEN DOSE (STUDY DURATION: 20 WK), Route [Inhibitor]: DERMAL, Species: MOUSE, Strain/Sex: CD-1/FEMALE, Target Tissue: Type of Lesion: SKIN: PAPILLOMA, Dose [Carcinogen]: 200 NMOL IN 200 µL ACETONE ONCE, Promoter: 12-O-TETRADECANOYLPHORBOL-13-ACETATE, 16561-29-8) | tumour outcome (control, treated, inhibition, significance) (Carcinogen: BENZO[A]PYRENE, 50-32-8, Dose [Inhibitor]: 0.06 MMOL/G OF DIET STARTING 8 D BEFORE AND CONTINUING THROUGH 3 D AFTER LAST CARCINOGEN TREATMENT (STUDY DURATION: 148, Route [Inhibitor]: ORAL, Species: MOUSE, Strain/Sex: ICR/FEMALE, Target Tissue: Type of Lesion: FORESTOMACH: NEOPLASM, Dose [Carcinogen]: 1 MG IN 0.2 ML CORN OIL 2/WK FOR 4 WK, Promoter: NONE USED) | tumour outcome (control, treated, inhibition, significance) (Carcinogen: N-NITROQUINOLINE-1-OXIDE, 56-57-5, Dose [Inhibitor]: 0, 500 PPM IN DIET FOR 7 WK BEGINNING 1 WK PRIOR TO START OF CARCINOGEN TREATMENT (STUDY DURATION: 32 WK), Route [Inhibitor]: ORAL, Species: RAT, Strain/Sex: F344\MALE, Target Tissue: Type of Lesion: TONGUE: CARCINOMA, Dose [Carcinogen]: 20 PPM IN DRINKING WATER FOR 5 WK, Promoter: NONE USED) | tumour outcome (control, treated, inhibition, significance) (Carcinogen: BENZO[A]PYRENE, 50-32-8, Dose [Inhibitor]: 0, 0.06% IN DIET FOR DURATION OF STUDY BEGINNING 2 WK PRIOR TO CARCINOGEN DOSE (STUDY DURATION: 25 WK), Route [Inhibitor]: ORAL, Species: MOUSE, Strain/Sex: STRAIN-A/FEMALE, Target Tissue: Type of Lesion: FORESTOMACH: TUMOR, Dose [Carcinogen]: 1 MG IN 0.2 ML OLIVE OIL 2/WK FOR 4 WK, Promoter: NONE USED) | tumour outcome (control, treated, inhibition, significance) (Carcinogen: BENZO[A]PYRENE, 50-32-8, Dose [Inhibitor]: 0, 0.06% IN DIET FOR DURATION OF STUDY BEGINNING 2 WK PRIOR TO CARCINOGEN DOSE (STUDY DURATION: 25 WK), Route [Inhibitor]: ORAL, Species: MOUSE, Strain/Sex: STRAIN-A/FEMALE, Target Tissue: Type of Lesion: LUNG: ADENOMA, Dose [Carcinogen]: 1 MG IN 0.2 ML OLIVE OIL 2/WK FOR 4 WK, Promoter: NONE USED) | tumour outcome (control, treated, inhibition, significance) (Carcinogen: BENZO[A]PYRENE, 50-32-8, Dose [Inhibitor]: 0, 1% IN DIET FOR DURATION OF STUDY BEGINNING 2 WK PRIOR TO CARCINOGEN DOSE (STUDY DURATION: 25 WK), Route [Inhibitor]: ORAL, Species: MOUSE, Strain/Sex: STRAIN-A/FEMALE, Target Tissue: Type of Lesion: FORESTOMACH: TUMOR, Dose [Carcinogen]: 1 MG IN 0.2 ML OLIVE OIL 2/WK FOR 4 WK, Promoter: NONE USED) | tumour outcome (control, treated, inhibition, significance) (Carcinogen: BENZO[A]PYRENE, 50-32-8, Dose [Inhibitor]: 0, 1% IN DIET FOR DURATION OF STUDY BEGINNING 2 WK PRIOR TO CARCINOGEN DOSE (STUDY DURATION: 25 WK), Route [Inhibitor]: ORAL, Species: MOUSE, Strain/Sex: STRAIN-A/FEMALE, Target Tissue: Type of Lesion: LUNG: ADENOMA, Dose [Carcinogen]: 1 MG IN 0.2 ML OLIVE OIL 2/WK FOR 4 WK, Promoter: NONE USED) | outcome (Carcinogen: N,N-diethylnitrosamine, 55-18-5, Dose [Inhibitor]: 1% in diet through study, dose and study duration 24 wk, Route [Inhibitor]: Oral, Species: Mouse, Strain/Sex: ddy/Male, Target Tissue: Type of Lesion: Kidney, Dose [Carcinogen]: 100 mg/kg bw, Promoter: Ferric nitrilotriacetate, 16448-54-7)
O=C(O)/C=C/c1ccc(O)c(O)c1 | 1/15 (7%), 0/15 (0%), 100%, not significant | 7/19 (37%), 10/19 (53%), -43%, not calculated | 6/19 (32%), 9/19 (47%), -50%, not calculated | 15/19 (79%), 11/19 (58%), 27%, not calculated | 68%, 47%, 31%, not calculated | 68%, 38%, 44%, not calculated | 100%, 94%, 6%, not significant | 9/15 (60%), 0/15 (0%), 100%, p=0.00035 |  |  |  |  | 
CC(C)(Sc1cc(C(C)(C)C)c(O)c(C(C)(C)C)c1)Sc1cc(C(C)(C)C)c(O)c(C(C)(C)C)c1 |  |  |  |  |  |  |  |  | 15/15 (100%), 13/13 (100%), 0%, not significant | 15/15 (100%), 13/13 (100%), 0%, not significant | 15/15 (100%), 15/15 (100%), 0%, not significant | 15/15 (100%), 15/15 (100%), 0%, not significant | 14/20 (70%), 4/20 (20%)
